Source: publication PMC4805609, “Estrogenic Effects of Several BPA Analogs in the Developing Zebrafish Brain” (Frontiers in Neuroscience, 2016)

How the values were obtained:
zfERβ1 [1] = biological target: T1, zfERβ1 (Danio rerio, UniProt Q5PR29); experiment: cyp19a1b-luciferase reporter gene assay in U251-MG glial cells transfected with zfERβ1; format: cell-based, zebrafish; settings: 10–6 M, 24 h, U251-MG cells with ERβ1, vs DMSO
T1 sequence (Q5PR29 1-592): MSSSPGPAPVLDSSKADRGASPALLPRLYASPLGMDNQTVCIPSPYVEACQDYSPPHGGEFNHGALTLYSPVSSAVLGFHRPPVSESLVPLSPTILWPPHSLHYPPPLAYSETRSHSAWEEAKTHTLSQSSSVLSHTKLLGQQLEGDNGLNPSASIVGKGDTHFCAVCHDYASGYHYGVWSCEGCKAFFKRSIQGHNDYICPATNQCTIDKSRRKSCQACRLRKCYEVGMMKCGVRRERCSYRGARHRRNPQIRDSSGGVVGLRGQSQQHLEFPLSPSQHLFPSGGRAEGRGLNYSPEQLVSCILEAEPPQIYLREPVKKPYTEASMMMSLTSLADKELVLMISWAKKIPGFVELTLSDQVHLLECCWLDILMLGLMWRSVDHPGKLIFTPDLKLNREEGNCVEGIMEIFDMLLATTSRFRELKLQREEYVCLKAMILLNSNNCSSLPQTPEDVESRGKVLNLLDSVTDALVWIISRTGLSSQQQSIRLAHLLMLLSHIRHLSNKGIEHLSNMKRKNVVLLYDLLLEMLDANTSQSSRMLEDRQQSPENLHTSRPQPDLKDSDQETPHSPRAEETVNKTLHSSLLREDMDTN
Text: The zfER-α, zfER-β1, and zfER-β2 expression vectors correspond to Topo-pcDNA3 expression vector (Invitrogen, San Diego, CA, USA), containing the coding regions of each zebrafish estrogen receptor cDNA as previously described (Menuet et al., [2002]). The cyp19a1b-Luciferase plasmid consists of 500 bp of the proximal promoter region of zebrafish cyp19a1b gene, containing an ERE, coupled to the luciferase reporter gene (Menuet et al., [2002]).
Human U251-MG glial cells were maintained in phenol red-free Dulbecco's Modified Eagle's Medium (DMEM; Life Technologies, Saint Aubin, France) supplemented with 10% fetal calf serum (Biowest, Nuaillé, France), 4 mM L-Glutamine (Gibco, Carlsbad, CA, USA) and 1 mM Na-Pyruvate (Life Technologies, Saint Aubin, France) and kept at 37°C and 5% CO2 atmosphere (Le Page et al., [2006]). The medium was also supplemented with 20 U/mL penicillin, 20 μg/mL streptomycin, and 50 ng/mL amphotericin B (Gibco). For transfections, cells were plated in 24-well plates at a density of 25,000 cells/ml in the same medium, except the fetal calf serum was charcoal-treated and used at a concentration of 2.5%. Cells were transfected with 25 ng/well either the vector expression containing or not the zfERα, zfERβ1, zfERβ2 coding region and cytomegalovirus [CMV]−β-Galactosidase, and 150 ng/well of the cyp19a1b-Luciferase reporter plasmid, using JetPEI as a transfection reagent (Polyplus Transfection, Illkirch, France). […] Luciferase activity was measured 24 h later (Luciferase assay system, Promega, Madison, WI, USA). β-Galactosidase activity was used to normalize transfection efficiency. Chemicals were tested in at least 3 independent experiments and each experiment was performed in triplicate.

zfERα = biological target: T2, zfERα (Danio rerio, UniProt P57717); experiment: competitive binding assay vs [3H]-E2 on in vitro translated zfERα; set-up: containing the coding regions of each zebrafish estrogen receptor cDNA; species or system zebrafish; settings: for receptor-binding activity: competition with [3H]-E2, ERα, Figure 8A
T2 sequence (P57717 1-569): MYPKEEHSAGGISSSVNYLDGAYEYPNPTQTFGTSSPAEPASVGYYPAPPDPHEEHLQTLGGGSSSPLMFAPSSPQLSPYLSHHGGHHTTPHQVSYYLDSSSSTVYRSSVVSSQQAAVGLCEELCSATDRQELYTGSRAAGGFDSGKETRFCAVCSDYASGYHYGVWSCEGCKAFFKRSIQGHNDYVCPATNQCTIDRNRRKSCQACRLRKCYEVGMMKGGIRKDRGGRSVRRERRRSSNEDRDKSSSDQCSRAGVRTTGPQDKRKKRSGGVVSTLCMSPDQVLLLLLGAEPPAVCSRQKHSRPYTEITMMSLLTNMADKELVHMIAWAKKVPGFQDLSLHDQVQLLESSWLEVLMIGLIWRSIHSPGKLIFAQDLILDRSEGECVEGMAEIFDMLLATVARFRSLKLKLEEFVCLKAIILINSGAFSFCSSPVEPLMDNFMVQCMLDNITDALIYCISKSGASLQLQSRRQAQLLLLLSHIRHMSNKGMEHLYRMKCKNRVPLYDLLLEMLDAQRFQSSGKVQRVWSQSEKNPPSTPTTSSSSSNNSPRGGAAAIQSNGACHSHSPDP
Procedure: (§1) We also performed a competitive binding assay to test the binding properties of our compounds of interest with the three zfERs (Blair et al., [2000]). The three zebrafish estrogen receptor proteins were synthesized using the Topo-pcDNA3 expression vector containing the coding region of zfERα, zfERβ1, and zfERβ2 (Menuet et al., [2002]). The TNT Quick Coupled Transcription/Translation Systems kit (Promega, Madison, WI, USA) was used for synthesis of zfER proteins by adding 1 μg of each ER expression vector and according to the manufacturer's protocol. […] IC50 were calculated using GraphPad Prism, version 6.07.

zfERβ1 [2] = biological target: T1, zfERβ1; experiment: competitive binding assay vs [3H]-E2 on in vitro translated zfERβ1; set-up: species or system zebrafish
Procedure: as §1

zfERβ2 = zfERβ2 (Danio rerio, UniProt Q7ZU32)
Chain of zfERβ2 (Q7ZU32 1-553): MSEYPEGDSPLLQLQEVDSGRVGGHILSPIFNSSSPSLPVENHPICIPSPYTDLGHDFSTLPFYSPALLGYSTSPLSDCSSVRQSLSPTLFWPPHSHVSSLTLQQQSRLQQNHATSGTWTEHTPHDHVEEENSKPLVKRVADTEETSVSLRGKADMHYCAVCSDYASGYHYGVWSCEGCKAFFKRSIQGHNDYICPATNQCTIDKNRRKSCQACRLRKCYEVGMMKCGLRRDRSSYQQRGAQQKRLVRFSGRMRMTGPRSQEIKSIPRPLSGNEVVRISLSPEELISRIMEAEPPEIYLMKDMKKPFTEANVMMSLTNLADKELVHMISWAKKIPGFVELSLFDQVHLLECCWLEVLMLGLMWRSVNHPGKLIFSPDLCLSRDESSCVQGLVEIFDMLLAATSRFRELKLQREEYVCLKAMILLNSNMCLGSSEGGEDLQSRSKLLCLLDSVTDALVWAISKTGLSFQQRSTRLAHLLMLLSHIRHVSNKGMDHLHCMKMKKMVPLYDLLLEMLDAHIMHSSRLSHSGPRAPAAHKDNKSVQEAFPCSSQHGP
Procedure: as §1

Compound | cyp19a1b-luciferase reporter gene induction (zfERβ1 [1]) | receptor-binding activity (zfERα) | IC50 (zfERα; displacement of 10^−9 M [3H]-E2, ERα) [nM] | IC50 (zfERβ1 [2]) [nM] | receptor-binding activity (zfERβ2) | receptor-binding activity (zfERβ1 [2]; competition with [3H]-E2, ERβ1, Figure 8B)
CC(c1ccccc1)(c1ccc(O)cc1)c1ccc(O)cc1 [BPAP, 4,4′-(1-phenylethylidene)bisphenol] | did not stimulate | – | – | – | – | –
Oc1ccc(C(c2ccc(O)cc2)(C(F)(F)F)C(F)(F)F)cc1 [BPAF, 2,2-bis(4-hydroxylphenyl)hexafluoropropane] | – | bind in vitro to ERα receptor | 76 | 660 | – | –
O=S(=O)(c1ccc(O)cc1)c1ccc(O)cc1 [BPS, bis-(4-hydroxyphenyl)sulfone] | did not stimulate | almost no binding affinities | – | – | almost no binding affinities | almost no binding affinities
